The source of these data is patent US9145414B2, “1,2,4-triazine-6-carboxamide derivative” (TAIHO PHARMACEUTICAL CO., LTD., priority 2011, dated 2015).

For assay [1], the target named is human Syk protein (Homo sapiens (Human), UniProt P43405). Nature of the assay: Syk kinase inhibition test. It counts as biochemical. To be noted: read-out: SYK inhibitory activity IC50. The method, then:
Finally, phosphorylated peptides and non-phosphorylated peptides were separated therebetween using LabChip™ 3000 system (Caliper Life Sciences, Inc., excitation wavelength: 488 nm, detection wavelength: 530 nm). Their respective amounts were measured, and the rate of phosphorylation reaction was then determined from the ratio between the amounts. The concentration at which the compound can inhibit 50% phosphorylation reaction is defined as an IC50 value (μM).
Also, known 1,2,4-triazine-6-carboxamide derivatives A, B, and C (WO2000/075113 (A: compound No. 121 and B: compound No. 154) and WO2000/076980 (C: compound No. 39)) were synthesized as control compounds. Their IC50 values (μM) were calculated in the same way as above and then compared with that of the compound of the present invention.

The test system of assay [2] is SU-DHL-6 cells (diffuse large-cell lymphoma cell line). Description: Cell growth inhibition test. The assay is classed as cell-based. To be noted: Homo sapiens, 72 h; SU-DHL-6 cells, 3 days culture, Table 96; read-out: Cell growth inhibition IC50. As for the experimental part:
The compound of the present invention was serially diluted with dimethyl sulfoxide and then added to an RPMI1640 medium containing 10% FBS. Each resulting solution was added at a concentration of 100 μl/well to the preceding SU-DHL-6 cell culture plate (final concentration of the compound: 10, 3, 1, 0.3, 0.1, 0.03, 0.01, and 0.003 μM). The cells were cultured at 37° C. for 3 days in an incubator containing 5% CO2. The cells thus cultured were left at room temperature for 30 minutes and then centrifuged at 1500 rpm for 3 minutes using a centrifuge (Hitachi Koki Co., Ltd., Himac CF7D2). A 100 μl aliquot of the supernatant was removed from each well to allow 100 μl of the cell culture solution to remain therein. This 100 μl of the remaining cell culture solution was supplemented with an equal amount of CellTiter-Glo Luminescent Cell Viability Assay (Promega KK, Cat#: G7573), and the mixture was then shaken for 1 minute using a plate mixer. The reaction solution was left in the dark for 10 minutes. Then, luminescence intensity derived from live cells of each well was measured using a microplate reader (PerkinElmer Inc., ARVOsx). […] Likewise, the IC50 values (μM) of the control compounds were also calculated and then compared with that of the compound of the present invention. Rate of cell growth inhibition(%)=(C−T)/C×100 T: luminescence intensity (count per second) of a well supplemented with the test compound C: luminescence intensity (count per second) of a well non-supplemented with the test compound

Assay [3] addresses recombinant human KDR protein (Homo sapiens (Human), UniProt P35968). Description: KDR kinase activity inhibitory effect. The assay is classed as biochemical. To be noted: for KDR inhibitory activity: Selectivity for Syk: KDR IC50 relative to Syk IC50; for IC50: Table 97. As for the experimental part:
The purified recombinant human KDR protein used in the test is a house purified product. […] The mixture was incubated at 30° C. for 180 minutes to perform kinase reaction. […] Their respective amounts were measured, and the rate of phosphorylation reaction was then determined from the ratio between the amounts.

The target in assay [4] is recombinant human Aurora B protein (Homo sapiens (Human), UniProt Q96GD4). Nature of the assay: Aurora B kinase activity inhibitory effect. The assay is classed as biochemical. To be noted: Table 97; read-out: AuroraB inhibitory activity IC50. The method, then:
(§1) The reaction solution was left standing in the dark at room temperature for 120 minutes. Then, fluorescence polarization values obtained by measurement using PHERAstar (BMG LABTECH JAPAN Ltd., excitation wavelength: 485 nm, detection wavelength: 520 nm) were used to determine the rate of phosphorylation reaction.

Assay [5] has as its system recombinant human Aurora B protein. Nature of the assay: Aurora B kinase activity inhibitory effect. It counts as biochemical. As to conditions: Aurora B IC50 relative to Syk IC50. The method, then: as §1

Like-named read-outs stand apart in the source and are kept apart here. Some results are limits rather than exact numbers.

Sequence of recombinant human Aurora B protein (Homo sapiens (Human), UniProt Q96GD4) (Q96GD4 whole entry): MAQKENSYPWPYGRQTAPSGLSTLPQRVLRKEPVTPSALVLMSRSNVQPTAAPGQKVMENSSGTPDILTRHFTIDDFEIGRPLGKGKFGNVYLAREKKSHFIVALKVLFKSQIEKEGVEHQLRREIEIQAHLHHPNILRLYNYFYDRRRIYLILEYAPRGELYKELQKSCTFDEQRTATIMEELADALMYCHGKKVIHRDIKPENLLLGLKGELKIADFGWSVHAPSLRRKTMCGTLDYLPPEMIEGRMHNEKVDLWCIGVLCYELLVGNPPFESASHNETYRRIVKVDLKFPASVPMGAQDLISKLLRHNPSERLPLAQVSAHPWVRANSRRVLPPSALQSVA
Sequence of recombinant human KDR protein (P35968 20-1356): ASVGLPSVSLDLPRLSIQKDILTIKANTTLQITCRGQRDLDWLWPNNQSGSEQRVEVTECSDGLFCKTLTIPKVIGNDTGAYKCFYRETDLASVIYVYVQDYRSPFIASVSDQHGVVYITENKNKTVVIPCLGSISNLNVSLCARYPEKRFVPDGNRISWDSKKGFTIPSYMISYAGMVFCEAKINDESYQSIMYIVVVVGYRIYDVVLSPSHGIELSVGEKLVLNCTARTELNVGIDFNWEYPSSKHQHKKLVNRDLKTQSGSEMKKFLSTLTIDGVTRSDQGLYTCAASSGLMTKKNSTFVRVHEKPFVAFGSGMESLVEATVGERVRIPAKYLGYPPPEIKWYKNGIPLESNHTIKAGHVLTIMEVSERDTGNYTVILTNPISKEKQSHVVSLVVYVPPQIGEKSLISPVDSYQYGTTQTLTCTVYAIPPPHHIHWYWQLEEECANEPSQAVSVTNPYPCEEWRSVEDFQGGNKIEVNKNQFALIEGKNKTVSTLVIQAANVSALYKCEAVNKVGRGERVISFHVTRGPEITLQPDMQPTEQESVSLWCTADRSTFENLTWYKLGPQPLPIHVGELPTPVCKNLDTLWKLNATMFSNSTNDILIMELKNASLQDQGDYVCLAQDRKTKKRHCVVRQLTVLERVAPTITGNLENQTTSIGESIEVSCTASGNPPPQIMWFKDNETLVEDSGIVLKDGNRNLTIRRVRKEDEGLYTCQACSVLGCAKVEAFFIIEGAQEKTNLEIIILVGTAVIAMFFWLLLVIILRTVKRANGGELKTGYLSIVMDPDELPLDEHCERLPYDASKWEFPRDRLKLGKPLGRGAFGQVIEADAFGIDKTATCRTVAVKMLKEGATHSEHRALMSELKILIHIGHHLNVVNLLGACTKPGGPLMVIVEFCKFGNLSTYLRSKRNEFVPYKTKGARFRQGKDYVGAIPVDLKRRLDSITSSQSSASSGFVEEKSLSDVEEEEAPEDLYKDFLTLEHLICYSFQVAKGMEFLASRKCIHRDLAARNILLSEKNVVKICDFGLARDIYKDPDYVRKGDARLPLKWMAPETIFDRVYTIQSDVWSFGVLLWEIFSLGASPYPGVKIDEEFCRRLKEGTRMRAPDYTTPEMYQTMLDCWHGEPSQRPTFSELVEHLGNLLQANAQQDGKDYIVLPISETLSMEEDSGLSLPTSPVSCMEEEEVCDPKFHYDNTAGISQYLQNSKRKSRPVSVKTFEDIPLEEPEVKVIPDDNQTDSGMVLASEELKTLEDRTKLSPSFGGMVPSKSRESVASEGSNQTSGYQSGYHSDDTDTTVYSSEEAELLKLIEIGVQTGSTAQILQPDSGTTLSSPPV

For `NC(=O)c1nnc(N[C@@H]2CCCC[C@@H]2N)nc1Nc1ccc2cn(C(F)F)nc2c1` [Example 24, 3-((1R,2S)-2-aminocyclohexylamino)-5-(2-(difluoromethyl)-2H-indazol-6-ylamino)-1,2,4-triazine-6-carboxamide], the IC50 in assay [1] (Table 95) is 0.53 nM; in assay [1] (Table 97), 0.53 nM; in assay [2] it was 152 nM; in assay [3], greater than 10000 nM; in assay [4], greater than 10000 nM. Further, the “KDR inhibitory activity: Selectivity for Syk” value in assay [3] was “(>20000 times)”. Moreover, the “AuroraB inhibitory activity: Selectivity for Syk” value in assay [5] is “(>20000 times)”.
Regarding `CCn1cc2cc(Nc3nc(N[C@@H]4CCCC[C@@H]4N)nnc3C(N)=O)cc(-n3cccn3)c2n1` [Example 79, 3-(((1R,2S)-2-aminocyclohexyl)amino)-5-((2-ethyl-7-(1H-pyrazol-1-yl)-2H-indazol-5-yl)amino)-1,2,4-triazine-6-carboxamide], the IC50 in assay [1] (Table 95) amounted to 0.37 nM; in assay [2], 93 nM.
Regarding `Cc1cc(Nc2nc(N[C@@H]3CCCC[C@@H]3N)nnc2C(N)=O)cc2nn(C)cc12` [Example 91, 3-(((1R,2S)-2-aminocyclohexyl)amino)-5-((2,4-dimethyl-2H-indazol-6-yl)amino)-1,2,4-triazine-6-carboxamide diformate], the IC50 in assay [1] (Table 95) stood at 0.26 nM; in assay [2] it was 138 nM.
The corresponding values for `NC(=O)c1nnc(N[C@@H]2CCCC[C@@H]2N)nc1Nc1cccc2c1ccn2CCO` [Example 93, 3-(((1R,2S)-2-aminocyclohexyl)amino)-5-((1-(2-hydroxyethyl)-1H-indol-4-yl)amino)-1,2,4-triazine-6-carboxamide] are 0.67 nM and 149 nM.
Consider `CCn1ncc2c(C)cc(Nc3nc(N[C@@H]4CCCC[C@@H]4N)nnc3C(N)=O)cc21` [Example 97, 3-(((1R,2S)-2-aminocyclohexyl)amino)-5-((1-ethyl-4-methyl-1H-indazol-6-yl)amino)-1,2,4-triazine-6-carboxamide], for which the values for the IC50 in assay [1] (Table 95) and in assay [2] were 0.39 nM and 191 nM, respectively.
The corresponding values for `CCn1ncc2ccc(Nc3nc(N[C@@H]4CCCC[C@@H]4N)nnc3C(N)=O)cc21` [Example 154] are 0.43 nM and 138 nM.
Regarding `NC(=O)c1nnc(N[C@@H]2CCOC[C@@H]2N)nc1Nc1cccc2c1ccn2C1CC1` [Example 160], the IC50 in assay [1] (Table 95) came to 0.38 nM; in assay [1] (Table 97) it was 0.38 nM; in assay [2], 165 nM; in assay [3] it was 1400 nM; in assay [4], 1300 nM. In assay [3], the “KDR inhibitory activity: Selectivity for Syk” value is reported as “(4400 times)”. Also, the “AuroraB inhibitory activity: Selectivity for Syk” value in assay [5] is “(4100 times)”.
Turning to `NC(=O)c1nnc(N[C@@H]2CCCC[C@@H]2N)nc1Nc1cc2ccccc2s1` [Example 161], the IC50 in assay [1] (Table 95) was 0.28 nM; in assay [1] (Table 97), 0.28 nM; in assay [2], 27 nM; in assay [3], greater than 2000 nM; in assay [4] it was 420 nM. In addition, in assay [3], the “KDR inhibitory activity: Selectivity for Syk” value was “(>7000 times)”. Also, the “AuroraB inhibitory activity: Selectivity for Syk” value in assay [5] is “(1500 times)”.
Take `NC(=O)c1nnc(N[C@@H]2CCCC[C@@H]2N)nc1Nc1cc(-c2ccccc2)cs1` [Example 164]: the IC50 in assay [1] (Table 95) came out at 0.29 nM; in assay [2] it was 92 nM.
For `NC(=O)c1nnc(N[C@@H]2CCCC[C@@H]2N)nc1Nc1ccc2cnn(C(F)F)c2c1` [Example 165] the same measures were 0.36 nM and 177 nM.
The corresponding values for `NC(=O)c1nnc(N[C@@H]2CCOC[C@@H]2N)nc1Nc1ccc2cnn(C(F)F)c2c1` [Example 170] are 0.58 nM and 178 nM.
Take `NC(=O)c1nnc(N[C@@H]2CCCC[C@@H]2N)nc1Nc1csc2ccccc12` [Example 212]: the IC50 was 0.29 nM in assay [1] (Table 95) and 128 nM in assay [2].
For `NC(=O)c1nnc(N[C@@H]2CCCC[C@@H]2N)nc1Nc1ccc2sccc2c1` [Example 220] the same measures were 0.26 nM and 180 nM.
With `CC[C@H](N)CNc1nnc(C(N)=O)c(Nc2cccc3sccc23)n1` [Example 245], the IC50 in assay [1] (Table 95) stood at 0.35 nM; in assay [2] it was 158 nM.
The corresponding values for `COC[C@H](N)[C@@H](C)Nc1nnc(C(N)=O)c(Nc2cc(C)cc3c2ccn3C)n1` [Example 256, 3-(((2R,3R)-3-amino-4-methoxybutan-2-yl)amino)-5-((1,6-dimethyl-1H-indol-4-yl)amino)-1,2,4-triazine-6-carboxamide] are 0.35 nM and 157 nM.
Consider `Cn1cc2cc(Nc3nc(N[C@@H]4CCOC[C@@H]4N)nnc3C(N)=O)cc(-c3ccccc3)c2n1` [Example 257, 3-(((3R,4R)-3-aminotetrahydro-2H-pyran-4-yl)amino)-5-((2-methyl-7-phenyl-2H-indazol-5-yl)amino)-1,2,4-triazine-6-carboxamide], for which the values for the IC50 in assay [1] (Table 95) and in assay [2] were 0.38 nM and 49 nM, respectively.
On to `COC[C@H](N)[C@@H](C)Nc1nnc(C(N)=O)c(Nc2cc(-c3ccccc3)c3nn(C)cc3c2)n1` [Example 258], for which the IC50 is 0.29 nM in assay [1] (Table 95) and 60 nM in assay [2].
The corresponding values for `Cc1cc(Nc2nc(N[C@@H]3CCCC[C@@H]3N)nnc2C(N)=O)cc2cccnc12` [Example 259, 3-(((1R,2S)-2-aminocyclohexyl)amino)-5-((8-methylquinolin-6-yl)amino)-1,2,4-triazine-6-carboxamide] are 0.33 nM and 75 nM.
The corresponding values for `Cc1cc(Nc2nc(N[C@@H]3CCCC[C@@H]3N)nnc2C(N)=O)cc2nn(C(F)F)cc12` [Example 265, 3-(((1R,2S)-2-aminocyclohexyl)amino)-5-((2-(difluoromethyl)-4-methyl-2H-indazol-6-yl)amino)-1,2,4-triazine-6-carboxamide] are 0.5 nM and 125 nM.
The corresponding values for `Cc1cc(Nc2nc(N[C@@H]3CCOC[C@@H]3N)nnc2C(N)=O)c2ccn(C)c2c1` [Example 267] are 0.41 nM and 128 nM.
With `COC[C@H](N)[C@@H](C)Nc1nnc(C(N)=O)c(Nc2cc(C)c3nn(C(C)(C)C)cc3c2)n1` [Example 274], the IC50 in assay [1] (Table 95) was 0.95 nM; in assay [2], 155 nM.
The corresponding values for `NC(=O)c1nnc(N[C@@H]2CCOC[C@@H]2N)nc1Nc1cccc2c1ccn2C1CCC1` [Example 277] are 0.41 nM and 181 nM.

Usually IC50 stands for the concentration that inhibits the measured activity by half.
